Measured values taken from patent US7091199B1, “Thienoisoxazole phenoxy unsubstituted ethyl and propyl derivatives useful as d4 antagonists” (Aventis Pharmaceuticals Inc., priority 1999, dated 2006).
Structures can show the parent of a compound that is named as a salt.

Molecular target: T1, human D4 receptor (D4.2 sub-type) (Homo sapiens, UniProt P21917, DEL271-302)
T1 sequence (P21917 with tags, fused parts or gaps DEL271-302): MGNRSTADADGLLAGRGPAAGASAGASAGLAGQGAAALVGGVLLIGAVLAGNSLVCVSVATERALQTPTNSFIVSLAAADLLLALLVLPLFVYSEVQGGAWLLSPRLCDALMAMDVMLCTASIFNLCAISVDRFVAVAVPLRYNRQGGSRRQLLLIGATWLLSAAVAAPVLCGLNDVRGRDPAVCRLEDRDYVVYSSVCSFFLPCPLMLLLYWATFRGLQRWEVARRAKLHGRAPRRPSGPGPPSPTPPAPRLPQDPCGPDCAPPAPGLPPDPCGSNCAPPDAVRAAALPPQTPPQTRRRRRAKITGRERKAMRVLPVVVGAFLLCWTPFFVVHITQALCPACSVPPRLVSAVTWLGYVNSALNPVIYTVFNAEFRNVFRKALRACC
Assay: D4 receptor binding assay (3H-spiperone displacement)
Conditions: 3H-spiperone 0.25 nM, HEK cell membranes, human D4.2; read-out: D4 RBA Ki
Experimental: D4 receptor-binding affinities of the compounds were evaluated according to their ability to reduce binding of ^3H-spiperone as compared to the reference compound clozapine. The potency of the test compound to reduce ^3H-spiperone binding directly correlated to its binding affinity for the receptor.
[…] (human embryonic kidney) cells stably transfected with human D4 receptor (D4.2 sub-type) were grown in NUNC cell factories for 5 days (75% confluency) without a media change and removed with versene (approximately 19 mg of cells per cell factory tray). The cells were then centrifuged in a Sorval centrifuge for 10 min, 5000 rpm (GS3 rotor) and the pellets quickly frozen in liquid nitrogen and stored at −80° C. until used in binding assay. When used in the assay, cells were thawed on ice for 20 min and then 10 mL of incubation buffer (50 mM Tris, 1 mM EDTA, 4 mM MgCl2, 5 mM KCl, 1.5 mM CaCl2, 120 mM NaCl, pH 7.4) was added. The cells were then vortexed to resuspend pellet and homogenized with a Kinematica, CH-6010 Kriens-LU, homogenizer for 15 seconds at setting 7. Concentration of receptor protein was determined using the Pierce BCA assay.
The incubation was started by the addition of 100 μl (50 μg protein) membrane homogenate to a solution of 300 μl incubation buffer and 100 μl (0.25 nM final conc.) ^3H-spiperone (90 Ci/mmol, Amersham, diluted in borosilicate glass vial) in 96-well polypropylene plates (1 mL per well). The plates were vortexed and incubated at room temperature for 90 minutes. The binding reaction was stopped by filtering using a Packard Harvester. The samples were filtered under vacuum over glass fibre filter plates (Whatman GF/B) presoaked for 2 hours in 0.3% polyethylenimine (PEI) in 50 mM Tris buffer (pH 7.4). The filters were then washed 6 times with 7 mL ice cold 50 mM Tris buffer (pH 7.4). The filter plates were dried overnight and 35 μl of Microscint-O (Packard) was added. The plates were sealed and counted in the Packard Top Count (3 minutes per well).
The incubation was started by the addition of 100 μl (50 μg protein) membrane homogenate to a solution of 200 μl incubation buffer, 100 μl ^3H-spiperone (90 Ci/mmol, Amersham, diluted in borosilicate glass vial to 0.25 nM final conc.) and 100 μl (30 μM final conc.) of fresh dopamine (Research Biochemicals Inc., light protected and dissolved in incubation buffer) in 96-well polypropylene plates (1 mL per well). The plates were vortexed and incubated at room temperature for 90 minutes at which time the binding reaction was stopped by filtering. The filters were washed and counted using the same procedure as in the total binding assay described above to give the non-specific binding value (NSB).
The incubation was started by the addition, in 96-well polypropylene plates (1 mL per well), of 100 μl (50 μg protein) membrane homogenate to a solution of 200 μl incubation buffer, 100 μl (0.25 nM final conc.) ^3H-spiperone (90 Ci/mmol, Amersham, diluted in borosilicate glass vial) and 100 μl of test compound that was prepared from 1 mM stock dissolved in DMSO and stored at −20° C. in polypropylene cryogenic storage vials until dilution in incubation buffer in 96-well polypropylene plates. The plates were vortexed and incubated at room temperature for 90 minutes at which time the binding reaction was stopped by filtering. The filters were washed and counted using the same procedure as in the total binding assay described above to give the displacement binding value (BD).
The test compounds were initially assayed at 1 and 0.1 μM and then at a range of concentrations chosen such that the middle dose would cause about 50% inhibition of ^3H-spiperone binding. Specific binding in the absence of test compound (B0) was the difference of total binding (BT) minus non-specific binding (NSB) and similarly specific binding (in the presence of test compound) (B) was the difference of displacement binding (BD) minus non-specific binding (NSB). […]

SMILES | Ki [nM]
c1cc(OCCNC2Cc3ccccc3C2)cc(-c2noc3ccsc23)c1 [Compound 46, indan-2-yl-[2-(3-thieno[2,3-d]isoxazol-3-yl-phenoxy)-ethyl]-amine hydrochloride] | 36.1
c1cc(OCCNC23CC4CC(CC(C4)C2)C3)cc(-c2noc3ccsc23)c1 [Compound 47, adamantan-1-yl-[2-(3-thieno[2,3-d]isoxazol-3-yl-phenoxy)-ethyl]-amine] | 23

Same assay, conditions: @ 1 μM test compound; 3H-spiperone binding; read-out: D4 RBA % Inhibition (@ 1 μM)

SMILES | inhibition at 1 µM [%]
c1cc(OCCCN2CCc3ccccc3C2)cc(-c2noc3ccsc23)c1 [Compound 45, 2-[3-(3-thieno[2,3-d]isoxazol-3-yl-phenoxy)-propyl]-1,2,3,4-tetrahydroisoquinoline] | 52
c1cc(OCCN2CCCCC2)cc(-c2noc3ccsc23)c1 [Compound 48, 3-[3-(2-piperidin-1-yl-ethoxy)-phenyl]-thieno[2,3-d]isoxazole] | 83
Fc1ccc(CNCCOc2cccc(-c3noc4ccsc34)c2)c(F)c1 [Compound 49, (2,4-difluoro-benzyl)-[2-(3-thieno[2,3-d]isoxazol-3-yl-phenoxy)-ethyl]-amine] | 95
Fc1cccc(F)c1CNCCOc1cccc(-c2noc3ccsc23)c1 [Compound 50, (2,6-difluoro-benzyl)-[2-(3-thieno[2,3-d]isoxazol-3-yl-phenoxy)-ethyl]-amine] | 65
FC(F)(F)c1ccccc1CNCCOc1cccc(-c2noc3ccsc23)c1 [Compound 51, [2-(3-thieno[2,3-d]isoxazol-3-yl-phenoxy)-ethyl]-(2-trifluoromethylbenzyl)-amine] | 58
FC(F)(F)c1ccc(CNCCOc2cccc(-c3noc4ccsc34)c2)cc1 [Compound 52, [2-(3-thieno[2,3-d]isoxazol-3-yl-phenoxy)-ethyl]-(4-trifluoromethylbenzyl)-amine] | 96
c1cc(OCCCNC23CC4CC(CC(C4)C2)C3)cc(-c2noc3ccsc23)c1 [Compound 53, adamantan-1-yl-[3-(3-thieno[2,3-d]isoxazol-3-yl-phenoxy)-propyl]-amine] | 94
c1cc(OCCCN2CCCCC2)cc(-c2noc3ccsc23)c1 [Compound 54, 3-[3-(3-piperidin-1-yl-propoxy)-phenyl]-thieno[2,3-d]isoxazole] | 94
Fc1ccc(CNCCCOc2cccc(-c3noc4ccsc34)c2)c(F)c1 [Compound 55, (2,4-difluoro-benzyl)-[3-(3-thieno[2,3-d]isoxazol-3-yl-phenoxy)-propyl]-amine] | 92
Fc1cccc(F)c1CNCCCOc1cccc(-c2noc3ccsc23)c1 [Compound 56, (2,6-difluoro-benzyl)-[3-(3-thieno[2,3-d]isoxazol-3-yl-phenoxy)-propyl]-amine] | 64
FC(F)(F)c1ccccc1CNCCCOc1cccc(-c2noc3ccsc23)c1 [Compound 57, [3-(3-thieno[2,3-d]isoxazol-3-yl-phenoxy)-propyl]-(2-trifluoromethylbenzyl)-amine] | 46
FC(F)(F)c1ccc(CNCCCOc2cccc(-c3noc4ccsc34)c2)cc1 [Compound 58, [3-(3-thieno[2,3-d]isoxazol-3-yl-phenoxy)-propyl]-(4-trifluoromethylbenzyl)-amine] | 77
CC1CCN(CCOc2cccc(-c3noc4ccsc34)c2)CC1 [Compound 59, 3-{3-[2-(4-methyl-piperidin-1-yl)-ethoxy]-phenyl}-thieno[2,3-d]isoxazole] | 90
CCCC1CCN(CCOc2cccc(-c3noc4ccsc34)c2)CC1 [Compound 60, 3-{3-[2-(4-propyl-piperidin-1-yl)-ethoxy]-phenyl}-thieno[2,3-d]isoxazole] | 82
c1cc(OCCN2CCCC2)cc(-c2noc3ccsc23)c1 [Compound 61, 3-[3-(2-pyrrolidin-1-yl-ethoxy)-phenyl]-thieno[2,3-d]isoxazole] | 41
c1cc(OCCN2CCCCCC2)cc(-c2noc3ccsc23)c1 [Compound 62, 3-[3-(2-azepan-1-yl-ethoxy)-phenyl]-thieno[2,3-d]isoxazole] | 90
